# Laboratory results: PMC10826971, “Evaluating protein cross-linking as a therapeutic strategy to stabilize SOD1 variants in a mouse model of familial ALS” (PLOS Biology, 2024)
# “Also recorded” adds a separate entry of the source.
# Assays:
# human serum albumin = human serum albumin (Homo sapiens, UniProt P02768); assay type: in vitro ADME
# SOD1 = SOD1 (Homo sapiens, UniProt P00441); assay type: binding
# Method: A computational search was performed in PubChem to identify all compounds containing a cyclic disulfide motif. […] Of these, 69 compounds cross-linked SOD1 with a wide array of reaction rates. Only 2 compounds could cross-link 100% of SOD1 during the assay, including one 5-membered cyclic disulfide (4-Amino-1,2-Dithiolane-4-Carboxylic Acid) and one 6-membered cyclic thiosulfinate (1,2-dithiane 1-oxide).
# B6 G93A mice = test: Survival study, congenic B6 G93A/YFP mice, S-XL6 50 mg/kg SC on weekdays from day 108; assay type: in vivo, mouse; design: Dosed remained: unit not given here
# Text: Two fALS lines were used to assess survival in genetic backgrounds with different disease severity. […] Dose and dose regimen were estimated from the blood PK/PD profile and BBB penetration described above. A subcutaneous (SC) route of administration was chosen because in our hands it results in more precise delivery. […] In both studies, mice were gender and littermate matched and non ALS-related deaths were excluded. We are currently developing the methods necessary for quantifying copy number and cannot rule out reduced SOD1 expression as having contributed to the survival benefit in treated B6 G93A mice.
# The first line was derived by crossing (over >10 generations) congenic fALS “B6 G93A mice” (B6.Cg-Tg(SOD1*G93A)1Gur/J, Stock No. 004435, The Jackson Laboratory, Bar Harbor, Maine, USA) with “YFP-16 mice” [50] (B6.Cg-Tg(Thy1-YFP)16Jrs/J, Stock No. 003709, The Jackson Laboratory, Bar Harbor, Maine, USA). This line maintains the C57BL/6J genetic background and expresses YFP in motor and sensory neurons to enable cellular-level molecular profiling in future studies. The second line is the standard “Hybrid B6SJL G93A mice” (B6SJL-Tg(SOD1*G93A)1Gur/J Stock No. 002726, The Jackson Laboratory, Bar Harbor, Maine, USA). Methods for survival studies have been described and followed the conventions for optimal trial design with fALS mice. Mice were tested for difference in: (1) disease onset (at least a 20% decrease in grip strength and open-field motor performance, which we expect to correlate with change in weight); (2) disease end-stage (disease score, e.g., loss of righting reflex); and (3) weight. The hybrid line was additionally tested for differences in forelimb and hindlimb grip strength.
# human serum albumin, sequence (P02768 25-609): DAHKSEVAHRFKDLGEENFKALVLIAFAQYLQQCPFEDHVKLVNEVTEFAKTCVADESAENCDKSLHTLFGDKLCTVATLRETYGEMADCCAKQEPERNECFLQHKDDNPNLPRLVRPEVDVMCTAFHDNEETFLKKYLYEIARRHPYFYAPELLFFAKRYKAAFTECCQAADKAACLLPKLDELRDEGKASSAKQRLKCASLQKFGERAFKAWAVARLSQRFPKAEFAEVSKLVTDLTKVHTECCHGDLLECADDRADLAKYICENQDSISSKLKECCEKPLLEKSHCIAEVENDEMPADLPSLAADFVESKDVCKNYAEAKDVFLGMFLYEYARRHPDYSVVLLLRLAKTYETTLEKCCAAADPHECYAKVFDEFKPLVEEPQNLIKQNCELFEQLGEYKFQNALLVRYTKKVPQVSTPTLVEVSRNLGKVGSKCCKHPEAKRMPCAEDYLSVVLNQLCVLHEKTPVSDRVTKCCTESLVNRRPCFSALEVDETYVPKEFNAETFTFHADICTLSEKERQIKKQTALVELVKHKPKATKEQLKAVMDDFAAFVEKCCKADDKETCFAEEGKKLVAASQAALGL
# SOD1, sequence (P00441 2-154 limits assumed): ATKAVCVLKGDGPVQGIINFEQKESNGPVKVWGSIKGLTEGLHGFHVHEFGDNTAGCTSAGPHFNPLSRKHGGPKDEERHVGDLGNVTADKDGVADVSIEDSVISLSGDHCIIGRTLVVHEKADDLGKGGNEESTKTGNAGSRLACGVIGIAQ
smiles,measurement,setting,value
"[O-][S+]1CCCCS1 (stereo not drawn) [S-XL6, 1,2-dithiane-1-oxide]",binding to purified protein,human serum albumin,not bound
same,SOD1 cross-linked during the assay,SOD1,100%
same,survival benefit,B6 G93A mice; 50 mg/kg SC from day 108,modest survival benefit; also recorded: modest survival improvement
same,clinical signs immediately after dosing,B6 G93A mice; SC dosing,lethargy and shaking that subsided after 20 min
same,Dosed remained,B6 G93A mice; day 0,100
same,Dosed remained,B6 G93A mice; day 125,100
same,Dosed remained,B6 G93A mice; day 125.999,100
same,Dosed remained,B6 G93A mice; day 127.999,100
same,Dosed remained,B6 G93A mice; day 128,100
same,Dosed remained,B6 G93A mice; day 128.999,100
same,Dosed remained,B6 G93A mice; day 129,100
same,Dosed remained,B6 G93A mice; day 129.999,100
same,Dosed remained,B6 G93A mice; day 130,100
same,Dosed remained,B6 G93A mice; day 130.999,100
same,Dosed remained,B6 G93A mice; day 131,100
same,Dosed remained,B6 G93A mice; day 131.999,100
same,Dosed remained,B6 G93A mice; day 132,100
same,Dosed remained,B6 G93A mice; day 132.999,100
same,Dosed remained,B6 G93A mice; day 133,100
same,Dosed remained,B6 G93A mice; day 133.999,100
same,Dosed remained,B6 G93A mice; day 134,100
same,Dosed remained,B6 G93A mice; day 134.999,100
same,Dosed remained,B6 G93A mice; day 135,100
same,Dosed remained,B6 G93A mice; day 135.999,100
same,Dosed remained,B6 G93A mice; day 136,100
same,Dosed remained,B6 G93A mice; day 136.999,100
same,Dosed remained,B6 G93A mice; day 137,100
same,Dosed remained,B6 G93A mice; day 137.999,100
same,Dosed remained,B6 G93A mice; day 138,100
same,Dosed remained,B6 G93A mice; day 138.999,100
same,Dosed remained,B6 G93A mice; day 139,100
same,Dosed remained,B6 G93A mice; day 139.999,100
same,Dosed remained,B6 G93A mice; day 140,100
same,Dosed remained,B6 G93A mice; day 140.999,100
same,Dosed remained,B6 G93A mice; day 141,100
same,Dosed remained,B6 G93A mice; day 141.999,100
same,Dosed remained,B6 G93A mice; day 142,100
same,Dosed remained,B6 G93A mice; day 142.999,100
same,Dosed remained,B6 G93A mice; day 143,100
same,Dosed remained,B6 G93A mice; day 143.999,100
same,Dosed remained,B6 G93A mice; day 144,100
same,Dosed remained,B6 G93A mice; day 144.999,100
same,Dosed remained,B6 G93A mice; day 145,100
same,Dosed remained,B6 G93A mice; day 145.999,100
same,Dosed remained,B6 G93A mice; day 146,100
same,Dosed remained,B6 G93A mice; day 146.999,100
same,Dosed remained,B6 G93A mice; day 147,100
same,Dosed remained,B6 G93A mice; day 147.999,100
same,Dosed remained,B6 G93A mice; day 148,100
same,Dosed remained,B6 G93A mice; day 148.999,100
same,Dosed remained,B6 G93A mice; day 149,100
same,Dosed remained,B6 G93A mice; day 149.999,100
same,Dosed remained,B6 G93A mice; day 150,100
same,Dosed remained,B6 G93A mice; day 150.999,100
same,Dosed remained,B6 G93A mice; day 151,100
same,Dosed remained,B6 G93A mice; day 151.999,100
same,Dosed remained,B6 G93A mice; day 152,100
same,Dosed remained,B6 G93A mice; day 152.999,100
same,Dosed remained,B6 G93A mice; day 153,100
same,Dosed remained,B6 G93A mice; day 153.999,100
same,Dosed remained,B6 G93A mice; day 154,100
same,Dosed remained,B6 G93A mice; day 154.999,100
same,Dosed remained,B6 G93A mice; day 155,100
same,Dosed remained,B6 G93A mice; day 155.999,100
same,Dosed remained,B6 G93A mice; day 156,100
same,Dosed remained,B6 G93A mice; day 156.999,100
same,Dosed remained,B6 G93A mice; day 157,70
same,Dosed remained,B6 G93A mice; day 172.999,30
same,Dosed remained,B6 G93A mice; day 173,30
same,Dosed remained,B6 G93A mice; day 173.999,30
same,Dosed remained,B6 G93A mice; day 174,30
same,Dosed remained,B6 G93A mice; day 174.999,30
same,Dosed remained,B6 G93A mice; day 175,30
same,Dosed remained,B6 G93A mice; day 175.999,30
same,Dosed remained,B6 G93A mice; day 176,30
same,Dosed remained,B6 G93A mice; day 176.999,30
same,Dosed remained,B6 G93A mice; day 177,30
same,Dosed remained,B6 G93A mice; day 177.999,30
same,Dosed remained,B6 G93A mice; day 178,20
same,Dosed remained,B6 G93A mice; day 178.999,20
same,Dosed remained,B6 G93A mice; day 179,20
same,Dosed remained,B6 G93A mice; day 179.999,20
same,Dosed remained,B6 G93A mice; day 180,20
same,Dosed remained,B6 G93A mice; day 180.999,20
same,Dosed remained,B6 G93A mice; day 181,20
same,Dosed remained,B6 G93A mice; day 181.999,20
same,Dosed remained,B6 G93A mice; day 182,20
same,Dosed remained,B6 G93A mice; day 182.999,20
same,Dosed remained,B6 G93A mice; day 183,20
same,Dosed remained,B6 G93A mice; day 183.999,20
same,Dosed remained,B6 G93A mice; day 184,20
same,Dosed remained,B6 G93A mice; day 184.999,20
same,Dosed remained,B6 G93A mice; day 185,10
same,Dosed remained,B6 G93A mice; day 185.999,10
same,Dosed remained,B6 G93A mice; day 186,10
same,Dosed remained,B6 G93A mice; day 186.999,10
same,Dosed remained,B6 G93A mice; day 187,10
same,Dosed remained,B6 G93A mice; day 187.999,10
same,Dosed remained,B6 G93A mice; day 188,10
same,Dosed remained,B6 G93A mice; day 188.999,10
same,Dosed remained,B6 G93A mice; day 189,10
same,Dosed remained,B6 G93A mice; day 189.999,10
same,Dosed remained,B6 G93A mice; day 190,0
same,Dosed remained,B6 G93A mice; day 190.999,0
same,survival,"B6 G93A mice; dosed, mean +/− STD, control 153 +/− 15 days",169 ± 11 days
